Experimental data: ChEMBL document CHEMBL5385944, “Hydrazyl hydroxycoumarins as new potential conquerors towards Pseudomonas aeruginosa” (Bioorg Med Chem Lett, 2024)
Values after ≈ are worked out from the molar mass of the structure shown. Active and inactive are the calls of the source. The calls are words filed in the database; no cut-off is given here.

Assays:
[1] = system: Pseudomonas aeruginosa; test: Antibacterial activity against Pseudomonas aeruginosa ATCC 27853 assessed as reduction in bacterial growth by CLSI protocol based method; type: functional
[2] = system: Pseudomonas aeruginosa; test: Antibacterial activity against Pseudomonas aeruginosa ATCC 90027 assessed as reduction in bacterial growth by CLSI protocol based method; type: functional
[3] = Induction of drug resistance in Pseudomonas aeruginosa ATCC 27853 measured after 12 passages; type: functional
[4] = system: Staphylococcus aureus; test: Antibacterial activity against methicillin resistant Staphylococcus aureus assessed as reduction in bacterial growth by CLSI protocol based method; type: functional
[5] = system: Escherichia coli; test: Antibacterial activity against Escherichia coli ATCC 25922 assessed as reduction in bacterial growth by CLSI protocol based method; type: functional
[6] = system: Pseudomonas aeruginosa; test: Antibacterial activity against Pseudomonas aeruginosa ATCC 10104 assessed as reduction in bacterial growth by CLSI protocol based method; type: functional
[7] = system: Acinetobacter baumannii; test: Antibacterial activity against Acinetobacter baumannii assessed as reduction in bacterial growth by CLSI protocol based method; type: functional
[8] = system: Klebsiella pneumoniae; test: Antibacterial activity against Klebsiella pneumoniae assessed as reduction in bacterial growth by CLSI protocol based method; type: functional
[9] = system: Pseudomonas aeruginosa; test: Antibacterial activity against Pseudomonas aeruginosa assessed as reduction in bacterial growth by CLSI protocol based method; type: functional
[10] = system: Staphylococcus aureus; test: Antibacterial activity against methicillin resistant Staphylococcus aureus 43300 assessed as reduction in bacterial growth by CLSI protocol based method; type: functional
[11] = system: Staphylococcus aureus; test: Antibacterial activity against Staphylococcus aureus ATCC 29213 assessed as reduction in bacterial growth by CLSI protocol based method; type: functional
[12] = system: Enterococcus faecalis; test: Antibacterial activity against Enterococcus faecalis assessed as reduction in bacterial growth by CLSI protocol based method; type: functional
[13] = system: Staphylococcus aureus; test: Antibacterial activity against Staphylococcus aureus ATCC 25923 assessed as reduction in bacterial growth by CLSI protocol based method; type: functional
[14] = system: Cell membrane; test: Disruption of outer membrane integrity in Pseudomonas aeruginosa ATCC 27853 assessed as increase in fluorescence intensity measured after 8 hrs; type: subcellular
[15] = system: Cell membrane; test: Disruption of outer membrane integrity in Pseudomonas aeruginosa ATCC 27853 assessed as increase in fluorescence intensity at 4 to 8 times MIC; type: subcellular; details: time <= 80.0 min, TDE = time-dependent effect
[16] = system: Cell membrane; test: Disruption of inner membrane integrity in Pseudomonas aeruginosa ATCC 27853 assessed as increase in red fluorescence intensity at 8 times MIC measured after 10 to 40 mins by propidium iodide staining based analysis; type: subcellular; details: time 10-40 min
[17] = system: Pseudomonas aeruginosa; test: Induction of drug resistance in Pseudomonas aeruginosa ATCC 27853 measured within 17 passages; type: functional
[18] = system: NCM460; test: Cytotoxicity against human NCM460 cells assessed as effect on cell surface damage at 25 ug/ml measured after 24 hrs by microscope based analysis; type: toxicity; details: ncm460, 24 h, dose 25 µg/ml
[19] = system: Cell membrane; test: Disruption of cell membrane integrity in Pseudomonas aeruginosa ATCC 27853 assessed as increase in protein leakage by Bradford assay; type: subcellular
[20] = Hemolytic activity in human RBC assessed as hemolysis at 256 times MIC measured after 8 hrs relative to control; type: toxicity, cell-based, Erythrocyte; details: red blood cells (erythrocytes), read-out: Activity
[21] = system: Calf thymus DNA; test: Binding affinity to calf thymus DNA at upto 18 micromol/ml by fluorescence spectroscopic method; type: nucleic-acid assay; details: Bos taurus; dose <= 18.0 µmol/ml
[22] = system: Cell membrane; test: Disruption of inner membrane integrity in Pseudomonas aeruginosa ATCC 27853 assessed as increase in fluorescence intensity at 4 to 8 times MIC; type: subcellular; details: time <= 12.0 min, TDE = time-dependent effect
[23] = system: NCM460; test: Cytotoxicity against human NCM460 cells assessed as reduction in cell viability at 25 ug/ml measured after 24 hrs by CCK-8 method relative to control; type: toxicity, cell-based; details: ncm460, 24 h, at 25 µg/mL
[24] = system: Cell membrane; test: Disruption of inner membrane integrity in Pseudomonas aeruginosa ATCC 27853 assessed as increase in fluorescence intensity measured after 8 hrs; type: subcellular
[25] = system: Erythrocyte; test: Hemolytic activity against human RBC assessed as effect on cell morphology at 32 times MIC measured after 8 hrs by fluorescence microscopic analysis; type: toxicity, cell-based

| SMILES | MIC [1] | MIC [2] | MIC [4] | MIC [5] | MIC [6] | MIC [7] | MIC [8] | MIC [9] | MIC [10] | MIC [11] | MIC [12] | MIC [13] | other results |
| --- | --- | --- | --- | --- | --- | --- | --- | --- | --- | --- | --- | --- | --- |
| CCn1cc(C(=O)O)c(=O)c2cc(F)c(N3CCNCC3)cc21 [NORFLOXACIN] | 4 µg/mL (≈ 12.5 µM) | 2 µg/mL (≈ 6.26 µM) | 4 µg/mL (≈ 12.5 µM) | 4 µg/mL (≈ 12.5 µM) | 5 µg/mL (≈ 15.7 µM) | 2 µg/mL (≈ 6.26 µM) | 4 µg/mL (≈ 12.5 µM) | 4 µg/mL (≈ 12.5 µM) | 8 µg/mL (≈ 25.1 µM) | 2 µg/mL (≈ 6.26 µM) | 4 µg/mL (≈ 12.5 µM) | 2 µg/mL (≈ 6.26 µM) | MIC [3]: 128 µg/mL (≈ 401 µM) |
| O=c1ccc2ccc(O)c(/C=N/NS(=O)(=O)c3cccc4ccccc34)c2o1 | 256 µg/mL (≈ 649 µM) | 256 µg/mL (≈ 649 µM) | 256 µg/mL (≈ 649 µM) | 256 µg/mL (≈ 649 µM) | 128 µg/mL (≈ 325 µM) | 256 µg/mL (≈ 649 µM) | 512 µg/mL (≈ 1300 µM) | 64 µg/mL (≈ 162 µM) | 16 µg/mL (≈ 40.6 µM) | 512 µg/mL (≈ 1300 µM) | 512 µg/mL (≈ 1300 µM) | 512 µg/mL (≈ 1300 µM) |  |
| O=C(N/N=C/c1c(O)ccc2ccc(=O)oc12)c1ccc(O)cc1 | 512 µg/mL (≈ 1580 µM) | 512 µg/mL (≈ 1580 µM) | 512 µg/mL (≈ 1580 µM) | 512 µg/mL (≈ 1580 µM) | 512 µg/mL (≈ 1580 µM) | 512 µg/mL (≈ 1580 µM) | 256 µg/mL (≈ 789 µM) | 512 µg/mL (≈ 1580 µM) | 512 µg/mL (≈ 1580 µM) | 512 µg/mL (≈ 1580 µM) | 512 µg/mL (≈ 1580 µM) | 512 µg/mL (≈ 1580 µM) |  |
| O=c1ccc2ccc(O)c(/C=N/Nc3ccc(S(=O)(=O)Nc4nccs4)cc3)c2o1 | 256 µg/mL (≈ 579 µM) | 256 µg/mL (≈ 579 µM) | 512 µg/mL (≈ 1160 µM) | 512 µg/mL (≈ 1160 µM) | 512 µg/mL (≈ 1160 µM) | 256 µg/mL (≈ 579 µM) | 512 µg/mL (≈ 1160 µM) | 256 µg/mL (≈ 579 µM) | 512 µg/mL (≈ 1160 µM) | 256 µg/mL (≈ 579 µM) | 512 µg/mL (≈ 1160 µM) | 256 µg/mL (≈ 579 µM) |  |
| O=C(N/N=C/c1c(O)ccc2ccc(=O)oc12)c1ccc(F)cc1 | 512 µg/mL (≈ 1570 µM) | 512 µg/mL (≈ 1570 µM) | 512 µg/mL (≈ 1570 µM) | 256 µg/mL (≈ 785 µM) | 128 µg/mL (≈ 392 µM) | 256 µg/mL (≈ 785 µM) | 256 µg/mL (≈ 785 µM) | 512 µg/mL (≈ 1570 µM) | 16 µg/mL (≈ 49 µM) | 512 µg/mL (≈ 1570 µM) | 512 µg/mL (≈ 1570 µM) | 256 µg/mL (≈ 785 µM) |  |
| O=C(N/N=C/c1c(O)ccc2ccc(=O)oc12)c1ccccc1 | 256 µg/mL (≈ 830 µM) | 32 µg/mL (≈ 104 µM) | 256 µg/mL (≈ 830 µM) | 2 µg/mL (≈ 6.49 µM) | 1 µg/mL (≈ 3.24 µM) | 512 µg/mL (≈ 1660 µM) | 32 µg/mL (≈ 104 µM) | 16 µg/mL (≈ 51.9 µM) | 512 µg/mL (≈ 1660 µM) | 512 µg/mL (≈ 1660 µM) | 128 µg/mL (≈ 415 µM) | 2 µg/mL (≈ 6.49 µM) |  |
| Cc1cc(NS(=O)(=O)c2ccc(N/N=C/c3c(O)ccc4ccc(=O)oc34)cc2)no1 | 512 µg/mL (≈ 1160 µM) | 256 µg/mL (≈ 581 µM) | 256 µg/mL (≈ 581 µM) | 512 µg/mL (≈ 1160 µM) | 256 µg/mL (≈ 581 µM) | 256 µg/mL (≈ 581 µM) | 256 µg/mL (≈ 581 µM) | 512 µg/mL (≈ 1160 µM) | 512 µg/mL (≈ 1160 µM) | 512 µg/mL (≈ 1160 µM) | 256 µg/mL (≈ 581 µM) | 256 µg/mL (≈ 581 µM) |  |
| O=C(N/N=C/c1c(O)ccc2ccc(=O)oc12)c1ccc(Cl)cc1 | 256 µg/mL (≈ 747 µM) | 256 µg/mL (≈ 747 µM) | 512 µg/mL (≈ 1490 µM) | 256 µg/mL (≈ 747 µM) | 32 µg/mL (≈ 93.4 µM) | 256 µg/mL (≈ 747 µM) | 256 µg/mL (≈ 747 µM) | 256 µg/mL (≈ 747 µM) | 512 µg/mL (≈ 1490 µM) | 256 µg/mL (≈ 747 µM) | 256 µg/mL (≈ 747 µM) | 256 µg/mL (≈ 747 µM) |  |
| O=C(N/N=C/c1c(O)ccc2ccc(=O)oc12)c1ccncc1 | 0.5 µg/mL (≈ 1.62 µM) | 32 µg/mL (≈ 103 µM) | 4 µg/mL (≈ 12.9 µM) | 8 µg/mL (≈ 25.9 µM) | 16 µg/mL (≈ 51.7 µM) | 1 µg/mL (≈ 3.23 µM) | 2 µg/mL (≈ 6.47 µM) | 8 µg/mL (≈ 25.9 µM) | 1 µg/mL (≈ 3.23 µM) | 8 µg/mL (≈ 25.9 µM) | 8 µg/mL (≈ 25.9 µM) | 16 µg/mL (≈ 51.7 µM) | Activity [14]: Dose-Dependent Effect; Activity [15]: Tde; Activity [16]: Active; Activity [17]: Active; Activity [18]: Non-Toxic; Activity [19]: Dose-Dependent Effect; hemolysis at 8 h, 256 times MIC [20]: < 4%; Activity [21]: Active; Activity [22]: Tde; Activity [23]: > 80%; Activity [24]: Dose-Dependent Effect; Activity [25]: Non-Toxic |
| N/N=C/c1c(O)ccc2ccc(=O)oc12 | 128 µg/mL (≈ 627 µM) | 512 µg/mL (≈ 2510 µM) | 128 µg/mL (≈ 627 µM) | 32 µg/mL (≈ 157 µM) | 512 µg/mL (≈ 2510 µM) | 256 µg/mL (≈ 1250 µM) | 128 µg/mL (≈ 627 µM) | 512 µg/mL (≈ 2510 µM) | 128 µg/mL (≈ 627 µM) | 512 µg/mL (≈ 2510 µM) | 512 µg/mL (≈ 2510 µM) | 16 µg/mL (≈ 78.4 µM) |  |
| COC(=O)N/N=C/c1c(O)ccc2ccc(=O)oc12 | 256 µg/mL (≈ 976 µM) | 128 µg/mL (≈ 488 µM) | 512 µg/mL (≈ 1950 µM) | 1 µg/mL (≈ 3.81 µM) | 512 µg/mL (≈ 1950 µM) | 128 µg/mL (≈ 488 µM) | 128 µg/mL (≈ 488 µM) | 32 µg/mL (≈ 122 µM) | 512 µg/mL (≈ 1950 µM) | 512 µg/mL (≈ 1950 µM) | 256 µg/mL (≈ 976 µM) | 64 µg/mL (≈ 244 µM) |  |
